{
  "source": "patent US20260232660A1",
  "about": "(TARIS Biomedical LLC, priority 2023, published 2026)",
  "key": {"[1]": {"details": "first 6 hours", "procedure": "Solution formulations were prepared at various strengths in order to administer 0.5 mL volume to each rat bladder to dose 2, 6, and 18 mg/kg. Corresponding doses in nominal amount of drug were 0.5, 1.5, and 4.5 mg, respectively. After 1 hour of post-installation, rats were transferred to metabolic cages for collection of samples for PK determination. […] At each blood sampling time point, bladder samples were taken from each rat for drug analysis. In addition, bladders collected at 96 hours in the 18 mg/kg dose (high-dose) group were microscopically evaluated. Urine collections were limited to initial 0-6 hours post dose from all rats."}, "[2]": {"test_system": "orthotopic UM-UC-1 bladder tumors", "assay": "Continuous bladder perfusion, orthotopic UM-UC-1 bladder cancer model", "type": "in vivo", "details": "5 days perfusion; p<0.01 at 0.5, p<0.001 at 1.0 and 5 μg/mL nominal urine concentrations", "experimental": "Perfusion studies: The bladders of the study animals were cannulated on Day 1 and the animals were allowed to recover for 3 days. On Day 5, UM-UC-1 cells (2×10^6 cells) were injected into the lateral wall of each bladder. […] Based on the in vitro results, target urine concentrations of 0.5, 1.0, and 5.0 μg/mL were used in the perfusion experiments. Body weight, daily urine production, and daily water consumption were recorded. At necropsy, a plasma sample, bladder photographs, and bladder weight measurements were recorded.\nThe percent reduction in relative tumor weight between the control group and the drug perfusion groups was determined as an initial measure of efficacy."}, "in vivo": {"assay": "in vivo", "details": "female, Domestic Yorkshire Crossbred, pig, urine, other: continuous intravesical infusion, 0.22 mg/kg/day", "source_text": "On Day ~7 a catheter was surgically placed in the bladder of each animal. The distal end of the catheter was anchored to a subcutaneous site and attached to a vascular access port (VAP). The port was secured, and the animals were allowed to recover. Each animal was subsequently fitted with a portable infusion pump that was attached to the bladder catheter via the VAP. […] All excreted urine was collected in 24-hour intervals through Day 6 or 8. Blood samples were collected daily on study Days 1 to 8. Bladder tissue samples were collected from each animal at necropsy."}, "[3]": {"details": "rat, in vivo", "excerpt": "Rat bladders (5 groups of rats, n=3/group) were surgically catheterized under anesthesia and the catheter was externalized, tunneled subcutaneously, and connected to a vascular access harness (VAH) in the neck. Rats were transferred to individual metabolic cages with free access to food and water during the 1-week post-surgery recovery period. […] Plasma and bladder samples were collected at all time points."}, "[4]": {"test_system": "orthotopic RT-112 bladder tumor"}},
  "note": "Read-outs that look alike come from different tables or passages of the source. Marks after values point to notes of the source that are not given here.",
  "data": [
    {"smiles": "COc1cc(OC)cc(N(CCNC(C)C)c2ccc3ncc(-c4cnn(C)c4)nc3c2)c1", "note": "[erdafitinib, N-(3,5-dimethoxyphenyl)-N′-(1-methylethyl)-N-[3-(1-methyl-1H-pyrazol-4-yl)quinoxalin-6-yl]ethane-1,2-diamine]", "values": [
      {"measurement": "Percentage of compound eliminated as unchanged drug in the urine", "setting": "[1]; 2 mg/kg intravesical", "result": 23.5, "unit": "%"},
      {"measurement": "Percentage of compound eliminated as unchanged drug in the urine", "setting": "[1]; 6 mg/kg intravesical", "result": 19, "unit": "%"},
      {"measurement": "Percentage of compound eliminated as unchanged drug in the urine", "setting": "[1]; 18 mg/kg intravesical", "result": 50.3, "unit": "%"},
      {"measurement": "Bladder weight (tumor growth) vs vehicle control", "setting": "[2]", "result": "significant dose-related decrease in bladder weight"},
      {"measurement": "concentration at 8 day", "setting": "in vivo", "result": 1270, "unit": "ng/mL"},
      {"measurement": "C72 h", "setting": "[3]; female, Sprague-Dawley, 72 h", "result": "2,420^a ng/mL"},
      {"measurement": "C96 h", "setting": "[3]", "result": "BQL"},
      {"measurement": "C120 h", "setting": "[3]", "result": "BQL"},
      {"measurement": "Bladder weight decrease vs vehicle control", "setting": "[4]; 1.0 μg/mL perfusate concentration, p<0.05", "result": "significant bladder weight reduction"},
      {"measurement": "Body weight loss, maximum mean value", "setting": "[4]; erdafitinib-treated group, Day 11", "result": "up to −3%"}
    ]}
  ]
}
